Experimental data published in patent US20260274814A1, “THIENYL COMPOUNDS FOR THE TREATMENT OF A CENTRAL NERVOUS SYSTEM DISEASE OR DISORDER” (Coreterra Therapeutics, Inc., priority 2023, published 2026).
Counter-ions that a name gives are not always drawn.

Tested on: mice
Assay: Neuropharmacological Assay (SmartCube): automated behavioral signature of compound-treated mice compared with a database of reference drug classes
Format: in vivo
Details: for minimal effective dose: Mus musculus, ip, minimal effective dose: dose having 45% or more total activity in SmartCube, i.p., if only one dose tested, that dose is shown, read-out: MED; for AD / AG / AN / AP / AX / CE / HL / MS / PS / SH / UK: SmartCube class probability, 3.0 mg/kg i.p., 15 min before test
Summary of the method: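 Dose-response work typically spanned 0.3–10 mpk, widened or narrowed to obtain a full curve, with i.p. administration 15 min pre-test. MED is defined as the dose producing ≥45% total SmartCube activity; single-dose entries list the tested dose.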

Compound	minimal effective dose	AD	AG	AN	AP	AX	CE	HL	MS	PS	SH	UK
CNC1CCc2scc(C3CCC3)c2C1 (stereo not drawn) [Compound 206, 3-cyclobutyl-N-methyl-4,5,6,7-tetrahydrobenzothiophen-5-amine hydrochloride]	3 mg/kg	ND (^ <4%)	ND (^ <4%)	ND (^ <4%)	ND (^ <4%)	ND (^ <4%)	ND (^ <4%)	ND (^ <4%)	ND (^ <4%)	ND (^ <4%)	ND (^ <4%)	++ (≥24%)
CCc1csc2c1CC(NC)CC2 (stereo not drawn) [Compound 207, 3-ethyl-N-methyl-4,5,6,7-tetrahydrobenzothiophen-5-amine hydrochloride]	> 3 mg/kg	ND (^ <4%)	ND (^ <4%)	ND (^ <4%)	ND (^ <4%)	ND (^ <4%)	ND (^ <4%)	ND (^ <4%)	ND (^ <4%)	ND (^ <4%)	ND (^ <4%)	+ (≥4%)
CCc1csc2c1CC(N)CC2 (stereo not drawn) [Compound 208, 3-ethyl-4,5,6,7-tetrahydrobenzothiophen-5-amine hydrochloride]	> 3 mg/kg	ND (^ <4%)	ND (^ <4%)	ND (^ <4%)	ND (^ <4%)	ND (^ <4%)	ND (^ <4%)	ND (^ <4%)	ND (^ <4%)	ND (^ <4%)	ND (^ <4%)	+ (≥4%)
NC1CCc2c(F)csc2C1 (stereo not drawn) [Compound 209, 3-fluoro-4,5,6,7-tetrahydrobenzothiophen-6-amine hydrochloride]	< 3 mg/kg	++ (≥24%)	ND (^ <4%)	ND (^ <4%)	+ (≥4%)	+++ (≥49%)	+ (≥4%)	ND (^ <4%)	ND (^ <4%)	ND (^ <4%)	ND (^ <4%)	ND (^ <4%)
Cc1sc2c(c1F)CC(N)CC2 (stereo not drawn) [Compound 214, 3-fluoro-2-methyl-4,5,6,7-tetrahydrobenzothiophen-5-amine hydrochloride]	> 3 mg/kg	ND (^ <4%)	ND (^ <4%)	ND (^ <4%)	ND (^ <4%)	ND (^ <4%)	ND (^ <4%)	ND (^ <4%)	ND (^ <4%)	ND (^ <4%)	ND (^ <4%)	+ (≥4%)
NC1COc2c(Cl)csc2C1 (stereo not drawn) [Compound 215, 3-chloro-6,7-dihydro-5H-thieno[3,2-b]pyran-6-amine hydrochloride]	3 mg/kg	ND (^ <4%)	ND (^ <4%)	ND (^ <4%)	+ (≥4%)	+++ (≥49%)	ND (^ <4%)	ND (^ <4%)	ND (^ <4%)	ND (^ <4%)	ND (^ <4%)	ND (^ <4%)
NC1CCc2sc(Cl)cc2C1 (stereo not drawn) [Compound 216, 2-chloro-4,5,6,7-tetrahydrobenzothiophen-5-amine hydrochloride]	> 3 mg/kg	ND (^ <4%)	ND (^ <4%)	ND (^ <4%)	ND (^ <4%)	++ (≥24%)	ND (^ <4%)	ND (^ <4%)	ND (^ <4%)	ND (^ <4%)	ND (^ <4%)	+ (≥4%)
